# Laboratory results published in patent publication US8802597B2, “Herbicidal pyrimidines” (E I du Pont de Nemours and Company, priority 2003, dated 2014).
# Legend:
# Assay in all cases: Test B flooded paddy test
# Assay type in all cases: in vivo
# [1] = tested on: barnyardgrass (Echinochloa crus-galli); conditions: Flood, scale 0 to 100; for pest or weed control at 125 g/ha / pest or weed control at 500 g/ha: Echinochloa crus-galli, read-out: Plant response rating, Barnyardgrass
# In short: (§1)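 Plants were grown to the 2-leaf stage before treatment, then kept in a greenhouse for 13 to 15 days. Injury was rated visually against untreated controls on a 0 to 100 scale, where 0 is no effect and 100 is complete control.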
# [2] = tested on: duck salad (Heteranthera limosa); conditions: Flood, scale 0 to 100; for pest or weed control at 125 g/ha / pest or weed control at 500 g/ha: Heteranthera limosa, read-out: Plant response rating, Ducksalad
# In short: as §1
# rice (Oryza sativa) = conditions: Flood, scale 0 to 100; for plant injury at 125 g/ha / plant injury at 500 g/ha: Oryza sativa, read-out: Plant response rating, Rice
# In short: as §1
# [3] = tested on: umbrella sedge (Cyperus difformis); conditions: Flood, scale 0 to 100; for pest or weed control at 125 g/ha / pest or weed control at 500 g/ha: Cyperus difformis, read-out: Plant response rating, Sedge, Umbrella
# In short: as §1
structure (smiles),measurement,setting,value
"COC(=O)c1nc(-c2ccc(Cl)cc2)nc(N)c1Cl [Compound 58, methyl 6-amino-5-chloro-2-(4-chlorophenyl)-4-pyrimidinecarboxylate]",pest or weed control at 125 g/ha,[1]; 125 g ai/ha,0%
same,pest or weed control at 500 g/ha,[1]; 500 g ai/ha,0%
same,pest or weed control at 125 g/ha,[2]; 125 g ai/ha,100%
same,pest or weed control at 500 g/ha,[2]; 500 g ai/ha,100%
same,plant injury at 125 g/ha,rice (Oryza sativa); 125 g ai/ha,0%
same,plant injury at 500 g/ha,rice (Oryza sativa); 500 g ai/ha,0%
same,pest or weed control at 125 g/ha,[3]; 125 g ai/ha,90%
same,pest or weed control at 500 g/ha,[3]; 500 g ai/ha,100%
Cc1ccc(-c2nc(N)c(Cl)c(C(=O)O)n2)cc1 [Compound 91],"Plant response rating, Barnyardgrass",[1]; 125 g ai/ha,0
same,"Plant response rating, Barnyardgrass",[1]; 500 g ai/ha,20
same,"Plant response rating, Ducksalad",[2]; 125 g ai/ha,100
same,"Plant response rating, Ducksalad",[2]; 500 g ai/ha,100
same,"Plant response rating, Rice",rice (Oryza sativa); 125 g ai/ha,0
same,"Plant response rating, Rice",rice (Oryza sativa); 500 g ai/ha,0
same,"Plant response rating, Sedge, Umbrella",[3]; 125 g ai/ha,80
same,"Plant response rating, Sedge, Umbrella",[3]; 500 g ai/ha,90
COC(=O)c1nc(C2CC2)nc(N)c1OC [Compound 59],pest or weed control at 125 g/ha,[1]; 125 g ai/ha,0%
same,pest or weed control at 500 g/ha,[1]; 500 g ai/ha,0%
same,pest or weed control at 125 g/ha,[2]; 125 g ai/ha,0%
same,pest or weed control at 500 g/ha,[2]; 500 g ai/ha,0%
same,plant injury at 125 g/ha,rice (Oryza sativa); 125 g ai/ha,0%
same,plant injury at 500 g/ha,rice (Oryza sativa); 500 g ai/ha,0%
same,pest or weed control at 125 g/ha,[3]; 125 g ai/ha,0%
same,pest or weed control at 500 g/ha,[3]; 500 g ai/ha,0%
"COC(=O)c1nc(-c2ccc(Br)cc2)nc(N)c1Cl [Compound 96, methyl 6-amino-2-(4-bromophenyl)-5-chloro-4-pyrimidinecarboxylate]",pest or weed control at 125 g/ha,[1]; 125 g ai/ha,0%
same,pest or weed control at 500 g/ha,[1]; 500 g ai/ha,10%
same,pest or weed control at 125 g/ha,[2]; 125 g ai/ha,100%
same,pest or weed control at 500 g/ha,[2]; 500 g ai/ha,100%
same,plant injury at 125 g/ha,rice (Oryza sativa); 125 g ai/ha,0%
same,plant injury at 500 g/ha,rice (Oryza sativa); 500 g ai/ha,0%
same,pest or weed control at 125 g/ha,[3]; 125 g ai/ha,90%
same,pest or weed control at 500 g/ha,[3]; 500 g ai/ha,90%
